Values after ≈ are worked out from the molar mass of the structure shown.
How the values were obtained:
brain tumor cell lines = assay: Cytotoxicity (IC50) on brain tumor cell lines, pooled statement; type: cell-based; settings: GBM tumors not sensitive
Protocol: (§1) The effects on cell viability after the treatments with different concentrations of the Angelicae sinensis extracts or the active components purified therefrom were evaluated by modified MTT assay in triplicate. Briefly, the cells (5×10^3) were incubated into 96-well plates containing 100 μl of a growth medium. The cells were permitted to adhere for 24 hours, then treated with 100 μl of the herbal extracts or the active components dissolved in the medium. The control contained DMSO of <0.02% (v/v). After 24, 48 and 72 h incubation, the drug-containing medium was replaced by 50 μl of fresh medium, and cells in each well were incubated in 50 μl of 400 μg/ml MTT for 6-8 h. The medium and MTT were removed later and 100 μl of DMSO was added to each well and to the control, to dissolve the soluble components. Absorbance at 550 nm of the solutions was measured with MRX Microtiter Plate Luminometer (DYNEX, USA). The absorbance of untreated cells was considered as 100%. To evaluate the effects of the extracts or the active components on cell growth rate of GBM cells, 5×10^3 exponentially growing cells were treated with different concentrations for 24, 48, or 72 h. The cytotoxicity of each test substance was determined as an IC50 value, which represents the drug concentration required to cause 50% inhibition. All experiments in this study were performed in triplicate.

[1] = Cytotoxicity (IC50) on HUVEC; type: cell-based, human; settings: human
From the text: (§2) Human umbilical vascular endothelial cells (HUVECs) were purchased from Cascade Biologics, Inc. (USA). HUVECs were maintained in Medium 200 (Cascade Biologics, Inc. USA) supplemented with 10% fetal bovine serum (FBS; Gibco BRL) and low serum growth supplement (LSGS; Cascade Biologics, Inc. USA). Human dermal fibroblasts (HDFs) were purchased from Cascade Biologics, Inc. (USA). HDFs were maintained in Medium 106 (Cascade Biologics, Inc. USA) supplemented with 10% FBS and low serum growth supplement (LSGS; Cascade Biologics, Inc. USA). The human colon adenocarcinoma cell lines HT-29 were purchased from the ATCC (Manassas, Va. USA). HT-29 were maintained in Dubecco's Modified Eagle Medium (DMEM; Gibco) supplemented with 10% FBS and 100 ng/ml penicillin and […] streptomycin (Life Technologies, Inc., Grand Island, N.Y., USA). For the proliferation assay of cell in log growth (G1), the cells were harvested at 60-80% of confluence. 100 μl of cell suspensions were dispensed onto a Falcon 96-well plates The densities were 6×10^3 cells/well in Medium 200 (for HUVECs), and 9×10^3 cells/well in Medium 106 (for HDFs), and 5×10^3 cells/well in DMEM (for HT-29) supplemented with 10% FBS. The cells were pre-incubated for 24 hours in an incubator (Humidified atmosphere, e.g., at 37° C., 5% CO2). 10 μl of toxicant of various concentrations were added into the culture medium of the plate. The cell cultures were incubated for 48 hours. 10 μl of the Cell Counting Kit-8 (CCK-8; DOJINDO) solution were added and the cell cultures incubated for 1˜4 hours in the incubator. The absorbance was measured at 450 nm, using a microplate reader with a reference wavelength at 600 nm or over.
(§3) Human tumor cell lines (MCF-7, CL1-5, HT-29, Caco-2), human umbilical vascular endothelial cells (HUVEC), and human dermal fibroblasts (HDF) were tested for sensitivity on Angelicae sinensis extracts, ligustilide, n-butylidenephthalide and its derivatives in vitro. The DBTRG-05MG, BCM, HL-60 and J5 cells were grown in RPMI-1640 medium containing 10% fetal calf serum and 100 ng/ml penicillin and […] streptomycin at 37° C. in a humidified atmosphere with 5% CO2. The G5T/VGH, RG2, Ni 8, SVEC and Balb/3T3 cells were cultured in DMEM with 10% fetal calf serum and 100 ng/ml penicillin and […] streptomycin at 37° C. in 5% CO2. Mycoplasma infection of the culture cells was excluded by PCR screening methods before each experiment.
as §1

G5T/VGH = assay: Cytotoxicity (IC50) on G5T/VGH; type: cell-based; settings: Homo sapiens; Table 2
Protocol: as §3
The effects on cell viability after the treatments with different concentrations of the Angelicae sinensis extracts or the active components purified therefrom were evaluated by modified MTT assay in triplicate. Briefly, the cells (5×10^3) were incubated into 96-well plates containing 100 μl of a growth medium. The cells were permitted to adhere for 24 hours, then treated with 100 μl of the herbal extracts or the active components dissolved in the medium. The control contained DMSO of <0.02% (v/v). […] Absorbance at 550 nm of the solutions was measured with MRX Microtiter Plate Luminometer (DYNEX, USA). The absorbance of untreated cells was considered as 100%. […]

DBTRG-05MG = assay: Cytotoxicity (IC50) on DBTRG-05MG; type: cell-based; settings: Homo sapiens, read-out: Cytotoxicity (IC50) DBTRG-05MG
Protocol: as §3
as §1, with “All experiments in this study were performed in triplicate.” left out

ETS-1 = assay: RT-PCR of ETS-1 in HUVEC; type: cell-based, human
HUVEC [2] = assay: Cytotoxicity (IC50) on HUVEC; type: cell-based, human; settings: normal cells; for Cytotoxicity, IC50 HUVEC: Table 1; for IC50: Table 1, value in parentheses
From the text: as §2, §3, §1

HDF = assay: Cytotoxicity (IC50) on HDF; type: cell-based, human; settings: normal cells; for Cytotoxicity, IC50 HDF: Table 1; for IC50: Table 1, value in parentheses
From the text: as §2, §3
as §1, with “To evaluate the effects of the extracts or the active components on cell growth rate of GBM cells, 5×10^3 exponentially growing cells were treated with different concentrations for 24, 48, or 72 h. The cytotoxicity of each test substance was determined as an IC50 value, which represents the drug concentration required to cause 50% inhibition. All experiments in this study were performed in triplicate.” left out

RG2 = assay: Cytotoxicity (IC50) on RG2; type: cell-based, rat; settings: for IC50: Table 1, value in parentheses; for Cytotoxicity, IC50 RG2: cancer cells, Table 1
Protocol: as §3, §1

MMP-2 = assay: RT-PCR of MMP-2 in HUVEC; type: cell-based, human
HUVEC [3] = assay: Tube formation of HUVEC; type: cell-based, human

O=NN(CCCl)C(=O)NCCCl [carmustin, reference compound]
IC50 GBM tumors (brain tumor cell lines): > 100 µg/mL

CC(=O)O[C@H]1C(=O)[C@@]2(C)[C@H]([C@H](OC(=O)c3ccccc3)[C@]3(O)C[C@H](OC(=O)[C@H](O)[C@@H](NC(=O)c4ccccc4)c4ccccc4)C(C)=C1C3(C)C)[C@]1(OC(C)=O)CO[C@@H]1C[C@@H]2O [Taxol, reference compound]
IC50 [1]: < 0.1 µg/mL
IC50 (G5T/VGH): < 0.1 µg/mL
IC50 (DBTRG-05MG): 61 ± 3.3 µg/mL (≈ 71.4 µM)

CCC/C=C1/OC(=O)c2ccccc21 [BP-E form]
Inhibition RT-PCR ETS-1 (ETS-1): 159.4 µg/mL
Cytotoxicity, IC50 HUVEC (HUVEC [2]): >100 µg/mL
IC50 (HUVEC [2]): > 532 µM
Cytotoxicity, IC50 HDF (HDF): >100 µg/mL
IC50 (HDF): > 532 µM
IC50 (RG2): > 106 µM
Cytotoxicity, IC50 RG2 (RG2): >20 µg/mL

CCC/C=C1\OC(=O)c2ccccc21 [BP-Z form]
Inhibition RT-PCR MMP-2 (MMP-2): 531.3 µg/mL
Inhibition RT-PCR ETS-1 (ETS-1): 159.4 µg/mL
Cytotoxicity, IC50 HUVEC (HUVEC [2]): >100 µg/mL
IC50 (HUVEC [2]): > 532 µM
Cytotoxicity, IC50 HDF (HDF): 65.25 µg/mL
IC50 (HDF): 347 µM
IC50 (RG2): > 106 µM
Cytotoxicity, IC50 RG2 (RG2): >20 µg/mL
Inhibition Tube Formation (HUVEC [3]): 159.4 µg/mL

— patent US7455861B2, “Angelicae sinensis extracts useful for treatment of cancers” (priority 2004, dated 2008)
